Patent US10829458B2 (Araxes Pharma LLC, priority 2015, dated 2020)

Molecular target: T1, KRAS G12C 1-169, his-tagged protein, GDP-loaded (Homo sapiens, UniProt P01116, G12C)
T1 construct: KRAS G12C 1-169, his-tagged protein, GDP-loaded
Test: Biochemical assay: covalent modification of KRAS G12C measured by mass spectrometry (RapidFire/TOF or Q-Exactive)
Settings: covalent binding to KRAS G12C
Summary of the method: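 GDP-loaded his-tagged KRAS G12C 1-169 at 2 μM in 20 mM Hepes, 150 mM NaCl, 1 mM MgCl2 incubated at room temperature with compound (10, 30 or 100 μM final, 2% DMSO) for 30 min, 2 h or 24 h, then quenched with formic acid. Intact-protein LC-MS (RapidFire/TOF or Q-Exactive) with deconvolution quantified modified versus unmodified protein.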

Row | SMILES | Binding % (compounds of structure (I)) | Binding % (compounds of structure (III))
1 | C=CC(=O)N1CCN(c2nc(OCCc3ncccc3F)nc3c(F)c(-c4c(O)cccc4F)c(Cl)cc23)CC1 [Example I-114, 1-(4-(6-chloro-8-fluoro-7-(2-fluoro-6-hydroxyphenyl)-2-(2-(3-fluoro-pyridin-2-yl)ethoxy)quinazolin-4-yl)piperazin-1-yl) prop-2-en-1-one] | +++ (+++ indicates binding activity greater than 90%) | 
2 | C=CC(=O)N1CCN(c2nc(OCc3cccc(C)n3)nc3c(F)c(-c4c(O)cccc4F)c(Cl)cc23)CC1 [Example I-99, 1-(4-(6-chloro-8-fluoro-7-(2-fluoro-6-hydroxyphenyl)-2-((6-methyl-pyridin-2-yl)methoxy)quinazolin-4-yl)piperazin-1-yl)prop-2-en-1-one] | +++ (+++ indicates binding activity greater than 90%) | 
3 | C=CC(=O)N1CCN(c2c(C#N)c(NC3CCN(C4CC4)CC3)nc3c(F)c(-c4c(C)ccc5[nH]ncc45)c(Cl)cc23)CC1 [Example I-202, 4-(4-acryloyl-piperazin-1-yl)-6-chloro-2-((1-cyclopropyl-piperidin-4-yl)amino)-8-fluoro-7-(5-methyl-1H-indazol-4-yl) quinoline-3-carbonitrile] | ++ (++ indicates binding activity from 50 to 90%) | 
4 | C=CC(=O)Oc1cccc(F)c1-c1c(Cl)cc2c(N3CCN(C(=O)C=C)CC3)nc(OCC(=O)N(C)C)nc2c1F [Example I-9, 2-(4-(4-acryloyl-piperazin-1-yl)-6-chloro-2-(2-(dimethylamino)-2-oxoethoxy)-8-fluoroquinazolin-7-yl)-3-fluorophenyl acrylate] | ++ (++ indicates binding activity from 50 to 90%) | 
5 | C=CC(=O)N1CCN(c2nc(N3CCOCC3)nc3c(F)c(-c4cc(O)cc5ccccc45)c(Cl)cc23)CC1 [Example I-46, 1-(4-(6-chloro-8-fluoro-7-(3-hydroxy-naphthalen-1-yl)-2-morpholino-quinazolin-4-yl)piperazin-1-yl)prop-2-en-1-one] | +++ (+++ indicates binding activity greater than 90%) | 
6 | C=CC(=O)N1CCN(c2nc(N)nc3c(F)c(-c4c(C)ccc5[nH]ncc45)c(Cl)cc23)CC1 [Example I-189, 1-(4-(2-amino-6-chloro-8-fluoro-7-(5-methyl-1H-indazol-4-yl)quinazolin-4-yl)piperazin-1-yl) prop-2-en-1-one] | ++ (++ indicates binding activity from 50 to 90%) | 
7 | C=CC(=O)N1CCN(c2nc(N3CC4(CCOC4)C3)nc3c(F)c(-c4c(O)cccc4F)c(Cl)cc23)CC1 [Example I-155, 1-(4-(6-chloro-8-fluoro-7-(2-fluoro-6-hydroxyphenyl)-2-(6-oxa-2-azaspiro[3,4]octan-2-yl)quinazolin-4-yl)piperazin-1-yl) prop-2-en-1-one] | +++ (+++ indicates binding activity greater than 90%) | 
8 | C=CC(=O)N1CCN(c2nc(OCCc3ccc(C)nc3)nc3c(F)c(-c4c(O)cccc4F)c(Cl)cc23)CC1 [Example I-111, 1-(4-(6-chloro-8-fluoro-7-(2-fluoro-6-hydroxyphenyl)-2-(2-(6-methyl-pyridin-3-yl)ethoxy)quinazolin-4-yl)piperazin-1-yl) prop-2-en-1-one] | + (+ indicates binding activity up to 50%) | 
9 | C=CC(=O)N1CCN(c2ncnc3c(F)c(-c4c(O)cccc4F)c(Cl)cc23)[C@H](C)C1 [III-12, 1-((3R)-4-(6-chloro-8-fluoro-7-(2-fluoro-6-hydroxy-phenyl)quinazolin-4-yl)-3-methyl-piperazin-1-yl)prop-2-en-1-one] |  | + (+ indicates binding activity up to 50%)
10 | C=CC(=O)N1CCN(c2nc(OCCN3CCOCC3)nc3c(F)c(-c4c(C)ccc5[nH]ncc45)c(Cl)cc23)CC1 (atropisomer, axis not shown) [Example I-32, (S)-1-(4-(6-chloro-8-fluoro-7-(5-methyl-1H-indazol-4-yl)-2-(2-morpholino-ethoxy)quinazolin-4-yl)piperazin-1-yl)prop-2-en-1-one] | + (+ indicates binding activity up to 50%) | 
11 | C=CC(=O)N1CCN(c2nc(OCCCN3CCC(F)(F)C3)nc3c(F)c(-c4c(O)cccc4F)c(Cl)cc23)CC1 [Example I-62, 1-(4-(6-chloro-2-(3-(3,3-difluoro-pyrrolidin-1-yl)propoxy)-8-fluoro-7-(2-fluoro-6-hydroxyphenyl)quinazolin-4-yl)piperazin-1-yl) prop-2-en-1-one] | +++ (+++ indicates binding activity greater than 90%) | 
12 | C=CC(=O)N1CCN(c2ncnc3c(F)c(-c4c(F)cccc4OC)c(Cl)cc23)[C@H](C)C1 [III-13, 1-((3R)-4-(6-chloro-8-fluoro-7-(2-fluoro-6-methoxy-phenyl)quinazolin-4-yl)-3-methyl-piperazin-1-yl)prop-2-en-1-one] |  | + (+ indicates binding activity up to 50%)
13 | C=CC(=O)N1CCN(c2nc(OCCN3CCC(F)CC3)nc3c(F)c(-c4c(O)cccc4F)c(Cl)cc23)CC1 [Example I-76, 1-(4-(6-chloro-8-fluoro-7-(2-fluoro-6-hydroxyphenyl)-2-(2-(4-fluoro-piperidin-1-yl)ethoxy)quinazolin-4-yl)piperazin-1-yl)prop-2-en-1-one] | +++ (+++ indicates binding activity greater than 90%) | 
14 | C=CC(=O)N1CCN(c2ncnc3c(F)c(-c4c(C)ccc5[nH]ncc45)c(Cl)cc23)[C@@H](C)C1 [III-25, 1-((3S)-4-(6-chloro-8-fluoro-7-(5-methyl-1H-indazol-4-yl)quinazolin-4-yl)-3-methyl-piperazin-1-yl)prop-2-en-1-one] |  | +++ (+++ indicates binding activity greater than 90%)
15 | C=CC(=O)N1CCN(c2nc(OCCc3ccccn3)nc3c(F)c(-c4cc(O)cc5ccccc45)c(Cl)cc23)CC1 [Example I-44, 1-(4-(6-chloro-8-fluoro-7-(3-hydroxy-naphthalen-1-yl)-2-(2-(pyridin-2-yl)ethoxy)quinazolin-4-yl)piperazin-1-yl) prop-2-en-1-one] | +++ (+++ indicates binding activity greater than 90%) | 
16 | C=CC(=O)N1CCN(c2nc(NC3CCN(CC(F)(F)F)CC3)nc3c(F)c(-c4c(C)ccc5[nH]ncc45)c(Cl)cc23)CC1 [Example I-12, 1-(4-(6-chloro-8-fluoro-7-(5-methyl-1H-indazol-4-yl)-2-(1-(2,2,2-trifluoroethyl)piperidin-4-ylamino)quinazolin-4-yl)piperazin-1-yl)prop-2-en-1-one] | ++ (++ indicates binding activity from 50 to 90%) | 
17 | C=CC(=O)N1CCN(c2nc(N3CC(C)(N(C)C)C3)nc3c(F)c(-c4c(O)cccc4F)c(Cl)cc23)CC1 [Example I-149, 1-(4-(6-chloro-2-(3-(dimethyl-amino)-3-methyl-azetidin-1-yl)-8-fluoro-7-(2-fluoro-6-hydroxyphenyl)quinazolin-4-yl)piperazin-1-yl) prop-2-en-1-one] | +++ (+++ indicates binding activity greater than 90%) | 
18 | C=CC(=O)N1CCN(c2nc(N3CC(CN(C)C)C3)nc3c(F)c(-c4c(C)ccc5[nH]ncc45)c(Cl)cc23)CC1 [Example I-159, 1-(4-(6-chloro-2-(3-((dimethyl-amino)methyl)azetidin-1-yl)-8-fluoro-7-(5-methyl-1H-indazol-4-yl)quinazolin-4-yl)piperazin-1-yl) prop-2-en-1-one] | +++ (+++ indicates binding activity greater than 90%) | 
19 | C=CC(=O)N1CCN(c2nc(CCN3CC(F)(F)C3)nc3c(F)c(-c4c(O)cccc4F)c(Cl)cc23)CC1 [Example I-200, 1-(4-(6-chloro-2-(2-(3,3-difluoro-azetidin-1-yl)ethyl)-8-fluoro-7-(2-fluoro-6-hydroxyphenyl)quinazolin-4-yl)piperazin-1-yl) prop-2-en-1-one] | ++ (++ indicates binding activity from 50 to 90%) | 
20 | C=CC(=O)N1CCN(c2nc(NC3CCN(C4CC4)CC3)nc3c(F)c(-c4c(O)cccc4F)c(Cl)cc23)CC1 (atropisomer, axis not shown) [Example I-78, (S)-1-(4-(6-chloro-2-(1-cyclopropyl-piperidin-4-ylamino)-8-fluoro-7-(2-fluoro-6-hydroxyphenyl)quinazolin-4-yl)piperazin-1-yl)prop-2-en-1-one] | +++ (+++ indicates binding activity greater than 90%) | 
21 | C=CC(=O)N1CCN(c2nc(OCC(=O)N(C)C)nc3c(F)c(-c4c(O)cccc4F)c(Cl)cc23)CC1 [Example I-8, 2-(4-(4-acryloyl-piperazin-1-yl)-6-chloro-8-fluoro-7-(2-fluoro-6-hydroxyphenyl)quinazolin-2-yloxy)-N,N-dimethyl-acetamide] | +++ (+++ indicates binding activity greater than 90%) | 
22 | C=CC(=O)N1CCN(c2nc(OC3CCN(C(C)=O)CC3)nc3c(F)c(-c4c(O)cccc4F)c(Cl)cc23)CC1 [Example I-115, 1-(4-(2-(1-acetylpiperidin-4-yloxy)-6-chloro-8-fluoro-7-(2-fluoro-6-hydroxyphenyl)quinazolin-4-yl)piperazin-1-yl) prop-2-en-1-one] | +++ (+++ indicates binding activity greater than 90%) | 
23 | C=CC(=O)N1CCN(c2nc(OCc3cccnn3)nc3c(F)c(-c4c(O)cccc4F)c(Cl)cc23)CC1 [Example I-119, 1-(4-(6-chloro-8-fluoro-7-(2-fluoro-6-hydroxyphenyl)-2-(pyridazin-3-ylmethoxy)quinazolin-4-yl)piperazin-1-yl) prop-2-en-1-one] | + (+ indicates binding activity up to 50%) | 
24 | C=CC(=O)N1CCN(c2nc(N)nc3c(F)c(-c4cc(O)cc5ccccc45)c(Cl)cc23)CC1 [Example I-191, 1-(4-(2-amino-6-chloro-8-fluoro-7-(3-hydroxy-naphthalen-1-yl)quinazolin-4-yl)piperazin-1-yl) prop-2-en-1-one] | +++ (+++ indicates binding activity greater than 90%) | 
